This note sets out measurements from patent US9649379B2, “Pharmaceutical composition and pharmaceutical kit for the treatment of hepatocellular carcinoma” (ALMA MATER STUDIORUM—UNIVERSITA' DI BOLOGNA, priority 2007, dated 2017).

In the assay the test system is Cleaved PARP. Briefly: Apoptosis analysis: Western blot of cleaved PARP after doxorubicin. It is filed as cell-based, human. The note with it: doxorubicin 100 μg/ml, infected HepG2 cells. The procedure:
Stably infected cell populations of HepG2 cells were seeded into 6-well dishes and allowed to attach for 24 hours, washed and cultured in fresh complete medium with 100 ug/ml doxorubicin (Sigma) for 1 h, 3 h, 6 h, 12 h, 18 h and 24 h. Doxorubicin incorporation was detected by FACS counting of 10,000 events.
Cultured cells were dissolved in lysis buffer containing 10 mM Tris-HCl pH 7.4, 2.5 mM MgCl2, 1% TritonX 100, 1 mM DTT, 0.1 mM phenylmethylsulfonyl fluoride (PMSF), 1 mM Na3VO4, 1 mM NaF and protease inhibitors (Sigma Chemical Company, St. Louis, Mo.). The lysate was centrifuged at 4° C., 15,000×g, for 15 min and the supernatant assayed for protein concentration by Bio-Rad protein assay (Bio-Rad). […]
After repeated washing in PBS containing 0.1% Tween 20 (PBST), membranes were incubated with anti-mouse or anti-rabbit HRP-conjugated secondary antibodies using the EnVision dextran polymer visualization system (Dako). […] Digital images of autoradiographs were acquired with a Fluor-S MultiImager scanner (BioRad) and signals were quantitated with Quantity-one densitometric software (BioRad, Hercules, Calif.) in absorbance units after light calibration with a reference autoradiograph.

With `COc1cccc2c1C(=O)c1c(O)c3c(c(O)c1C2=O)C[C@@](O)(C(=O)CO)C[C@@H]3O[C@H]1C[C@H](N)[C@H](O)[C@H](C)O1` [Doxorubicin, doxorubicin], the “cleavage of PARP” value is on record as “caused cleavage of PARP”.
